{"source": "patent US20260176262A1", "about": "“KRAS INHIBITORS, PREPARATION METHOD THEREFOR, AND PHARMACEUTICAL USE THEREOF” (ABBISKO THERAPEUTICS CO., LTD., priority 2021, published 2026)", "key": {"KRAS^G12D/cRAF": {"target": "KRAS^G12D/cRAF (Homo sapiens, UniProt P01116, G12D)", "sequence (P01116 1-188 isoform P01116-2 G12D)": "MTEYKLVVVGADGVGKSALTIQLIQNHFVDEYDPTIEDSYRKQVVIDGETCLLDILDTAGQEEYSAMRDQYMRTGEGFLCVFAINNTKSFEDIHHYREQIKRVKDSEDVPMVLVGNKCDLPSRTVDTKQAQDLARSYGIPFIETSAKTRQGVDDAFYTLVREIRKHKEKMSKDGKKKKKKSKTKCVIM", "experiment": "KRAS G12D/cRAF binding test (Alphalisa)", "conditions": "His-tagged KRAS G12D + GMPPNP, GST-tagged cRAF", "method": "The compound was dissolved in 100% DMSO at a starting concentration of 5 mM and diluted in DMSO with a 3-fold serial dilution method for a total of 8 concentration points. 1 μL of the compound or DMSO at each concentration point was added into 99 μL of the experimental buffer to obtain 10× stock solution.\n• 1) 4 μL of the working mixture solution of His-tagged KRAS^G12D and GMPPNP was added to the 384-well plate. • 2) The 10× compound stock solution or 1% DMSO was added to the 384-well plate. • 3) The plate was centrifuged at 1000 rpm for 1 minute. • 4) 4 μL of GST-tagged cRAF solution was added to the 384-well plate. • 5) The plate was centrifuged at 1000 rpm for 1 minute. • 6) The plate was incubated at room temperature for 15 minutes. • 7) 10 μL of detection working solution was added to the 384-well plate. • 8) The plate was centrifuged at 1000 rpm for 1 minute. • 9) The plate was incubated at room temperature for 60 minutes. • 10) The 384-well plate was placed into Envision and assay data was obtained.\n(§1) The ratio for each compound concentration was calculated from the signal of the DMSO control group contained in each assay plate and the Alphalisa signal in each compound well. The compound concentration required for inhibitory concentration at 50% (IC50) was determined using a four-parameter logarithmic dose-response equation by testing the concentration of the compound and the value of the ratio. The endpoint value (IC50) of the reference compound was assessed in each experiment as a quality control measure. If the endpoint value is within three times the expected value, the experiment may be considered acceptable."}, "AGS cell": {"test_system": "AGS cell", "experiment": "Anti-proliferative 2D CTG assay, AGS cells", "assay_type": "cell-based", "conditions": "Homo sapiens, 72 h; for pIC50: AGS cells, incubated 3 days, CTG, read-out: AGS cell IC50", "method": "When the cell confluence was about 80%, the cells were isolated with 0.25% trypsin. Isolated cells were resuspended in 5 mL fresh cell culture medium and centrifuged for cell collection. Meanwhile, the number of cells was also calculated. The cells were then suspended in culture medium of medium concentration. The cells were placed into a 96-well plate with 1000 cells/well for AGS and 1000 cells/well for GP2D. The 96-well plate was placed in an incubator at 37° C. and incubated overnight.\n1.2 Day 1 Compound Treatment From the 10 mM stock solution, with a ratio of 1:5, 10-point serial dilutions were performed. The 10× medium containing the compound was transferred into corresponding wells of the 96 wells. The final maximum compound concentration was […] and the final DMSO concentration was 0.1%. The 96-well plate was placed in a 37° C. incubator, the AGS cells were incubated for 3 days, and the GP2D cells were incubated for 4 days.\n50 μL/well of detection reagent (CTG) was added to the AGS cells, and the signal was read in an Envision machine.\nas §1, with “The percent inhibition (%) at” for “The ratio for”, “signal in” for “signal of”, “the HPE and ZPE” for “the DMSO”, “control wells and the fluorescence signal in the individual compound wells included” for “control group contained”, “assay plate. […]” for “assay plate and the Alphalisa signal in each compound well.”, “the inhibition percentage value.” for “the value of the ratio.”"}}, "note": "pIC50: −log10 of the molar value. Read-outs that look alike come from different tables or passages of the source.", "data": [{"smiles": "C#Cc1c(F)ccc2cc(O)cc(-c3ncc4c(N5CC6CCC(COC)(C5)N6)nc(OC[C@@]56CCCN5C[C@H](F)C6)nc4c3F)c12", "note": "(stereo partly drawn) [Example 1, 5-ethynyl-6-fluoro-4-(8-fluoro-2-(((2R,7aS)-2-fluorotetrahydro-1H-pyrrolizin-7a-yl)methoxy)-4-(1-(methoxymethyl)-3,8-diazabicyclo[3.2.1]octan-3-yl)pyrido[4,3-d]pyrimidin-7-yl)naphthalen-2-ol]", "values": [{"measurement": "pIC50", "setting": "KRAS^G12D/cRAF; numeric values", "result": 7.00}, {"measurement": "IC50", "setting": "AGS cell; AGS, read-out: AGS cell IC50 (nM)", "result": 20, "unit": "nM"}]}, {"smiles": "[2H]C12CCC(COC([2H])([2H])[2H])(CN(c3nc(OC[C@@]45CCCN4C[C@H](F)C5)nc4c(F)c(-c5cc(O)cc6ccc(F)c(C#C)c56)ncc34)C1)N2", "note": "(stereo partly drawn) [Example 3, 5-ethynyl-6-fluoro-4-(8-fluoro-2-(((2R,7aS)-2-fluorotetrahydro-1H-pyrrolizin-7a(5H)-yl)methoxy)-4-(1-((methoxy-d3)methyl)-3,8-diazabicyclo [3.2.1]octan-3-yl-5-d)pyrido [4,3-d]pyrimidin-7-yl)naphthalen-2-ol]", "values": [{"measurement": "pIC50", "setting": "AGS cell; class symbols", "result": "> 7.30"}]}, {"smiles": "C#Cc1c(F)ccc2cc(O)cc(-c3ncc4c(N5CC6CCC(COC(F)F)(C5)N6)nc(OC[C@@]56CCCN5C[C@H](F)C6)nc4c3F)c12", "note": "(stereo partly drawn) [Example 4, 4-(4-(1-((difluoromethoxy)methyl)-3,8-diazabicyclo[3.2.1]octan-3-yl)-8-fluoro-2-(((2R,7aS)-2-fluorotetrahydro-1H-pyrrolizin-7a(5H)-yl)methoxy)pyrido[4,3-d]pyrimidin-7-yl)-5-ethynyl-6-fluoronaphthalen-2-ol]", "values": [{"measurement": "pIC50", "setting": "KRAS^G12D/cRAF; class symbols", "result": "6.30 to 7.30"}, {"measurement": "pIC50", "setting": "AGS cell; class symbols", "result": "6.30 to 7.30"}]}, {"smiles": "C#Cc1c(F)ccc2cc(O)cc(-c3ncc4c(N5CC6CCC(C#C)(C5)N6)nc(OC[C@@]56CCCN5C[C@H](F)C6)nc4c3F)c12", "note": "(stereo partly drawn) [Example 6, 5-ethynyl-4-(4-(1-ethynyl-3,8-diazabicyclo[3.2.1]octan-3-yl)-8-fluoro-2-(((2R,7aS)-2-fluorotetrahydro-1H-pyrrolizin-7a(5H)-yl)methoxy)pyrido[4,3-d]pyrimidin-7-yl)-6-fluoronaphthalen-2-ol]", "values": [{"measurement": "pIC50", "setting": "KRAS^G12D/cRAF; class symbols", "result": "6.30 to 7.30"}, {"measurement": "pIC50", "setting": "AGS cell; class symbols", "result": "> 7.30"}]}, {"smiles": "[2H]C([2H])([2H])C12CCC(CN(c3nc(OC[C@@]45CCCN4C[C@H](F)C5)nc4c(F)c(-c5cc(O)cc6ccc(F)c(C#C)c56)ncc34)C1)N2", "note": "(stereo partly drawn) [Example 7, 5-ethynyl-6-fluoro-4-(8-fluoro-2-(((2R,7aS)-2-fluorotetrahydro-1H-pyrrolizin-7a(5H)-yl)methoxy)-4-(1-(methyl-d3)-3,8-diazabicyclo[3.2.1]octan-3-yl)pyrido [4,3-d]pyrimidin-7-yl) naphthalen-2-ol]", "values": [{"measurement": "pIC50", "setting": "KRAS^G12D/cRAF; numeric values", "result": 8.37}, {"measurement": "pIC50", "setting": "AGS cell; numeric values", "result": 7.55}]}, {"smiles": "C#Cc1c(F)ccc2cc(O)cc(-c3ncc4c(N5CC6CCC(CCF)(C5)N6)nc(OC[C@@]56CCCN5C[C@H](F)C6)nc4c3F)c12", "note": "(stereo partly drawn) [Example 8, 5-ethynyl-6-fluoro-4-(8-fluoro-4-(1-(2-fluoroethyl)-3,8-diazabicyclo[3.2.1]octan-3-yl)-2-(((2R,7aS)-2-fluorotetrahydro-1H-pyrrolizin-7a(5H)-yl)methoxy)pyrido[4,3-d]pyrimidin-7-yl) naphthalen-2-ol]", "values": [{"measurement": "pIC50", "setting": "KRAS^G12D/cRAF; class symbols", "result": "> 7.30"}, {"measurement": "pIC50", "setting": "AGS cell; class symbols", "result": "> 7.30"}]}, {"smiles": "C#Cc1c(F)ccc2cc(O)cc(-c3ncc4c(N5CC6CCC(CCOC)(C5)N6)nc(OC[C@@]56CCCN5C[C@H](F)C6)nc4c3F)c12", "note": "(stereo partly drawn) [Example 9, 5-ethynyl-6-fluoro-4-(8-fluoro-2-(((2R,7aS)-2-fluorotetrahydro-1H-pyrrolizin-7a(5H)-yl)methoxy)-4-(1-(2-methoxyethyl)-3,8-diazabicyclo[3.2.1]octan-3-yl)pyrido[4,3-d]pyrimidin-7-yl) naphthalen-2-ol]", "values": [{"measurement": "pIC50", "setting": "KRAS^G12D/cRAF; class symbols", "result": "6.30 to 7.30"}, {"measurement": "pIC50", "setting": "AGS cell; class symbols", "result": "6.30 to 7.30"}]}, {"smiles": "C#Cc1c(F)ccc2cc(O)cc(-c3ncc4c(N5CC6CCC(CSC)(C5)N6)nc(OC[C@@]56CCCN5C[C@H](F)C6)nc4c3F)c12", "note": "(stereo partly drawn) [Example 10, 5-ethynyl-6-fluoro-4-(8-fluoro-2-(((2R,7aS)-2-fluorotetrahydro-1H-pyrrolizin-7a(5H)-yl)methoxy)-4-(1-((methylthio)methyl)-3,8-diazabicyclo [3.2.1]octan-3-yl)pyrido[4,3-d]pyrimidin-7-yl)naphthalen-2-ol]", "values": [{"measurement": "pIC50", "setting": "KRAS^G12D/cRAF; class symbols", "result": "< 6.30"}, {"measurement": "pIC50", "setting": "AGS cell; class symbols", "result": "6.30 to 7.30"}]}, {"smiles": "C#Cc1c(F)ccc2cc(O)cc(-c3ncc4c(N5CC6CCC(CS(C)(=O)=O)(C5)N6)nc(OC[C@@]56CCCN5C[C@H](F)C6)nc4c3F)c12", "note": "(stereo partly drawn) [Example 11, 5-ethynyl-6-fluoro-4-(8-fluoro-2-(((2R,7aS)-2-fluorotetrahydro-1H-pyrrolizin-7a(5H)-yl)methoxy)-4-(1-((methanesulfonyl)methyl)-3,8-diazabicyclo[3.2.1]octan-3-yl)pyrido[4,3-d]pyrimidin-7-yl)naphthalen-2-ol]", "values": [{"measurement": "pIC50", "setting": "KRAS^G12D/cRAF; class symbols", "result": "< 6.30"}, {"measurement": "pIC50", "setting": "AGS cell; class symbols", "result": "< 6.30"}]}, {"smiles": "C#Cc1c(F)ccc2cc(O)cc(-c3ncc4c(N5CC6CCC(C(C)O)(C5)N6)nc(OC[C@@]56CCCN5C[C@H](F)C6)nc4c3F)c12", "note": "(stereo partly drawn) [Example 13, 5-ethynyl-6-fluoro-4-(8-fluoro-2-(((2R,7aS)-2-fluorotetrahydro-1H-pyrrolizin-7a(5H)-yl)methoxy)-4-(1-(1-hydroxyethyl)-3,8-diazabicyclo[3.2.1]octan-3-yl)pyrido[4,3-d]pyrimidin-7-yl) naphthalen-2-ol]", "values": [{"measurement": "pIC50", "setting": "AGS cell; class symbols", "result": "6.30 to 7.30"}]}, {"smiles": "[2H]C([2H])([2H])OCC12CCC(CN(c3nc(OC[C@@]45CCCN4C[C@H](F)C5)nc4c(F)c(-c5cc(O)cc6cc(F)c(F)c(C#C)c56)ncc34)C1)N2", "note": "(stereo partly drawn) [Example 15, 5-ethynyl-6,7-difluoro-4-(8-fluoro-2-(((2R,7aS)-2-fluorotetrahydro-1H-pyrrolizin-7a(5H)-yl)methoxy)-4-(1-((methoxy-d3)methyl)-3,8-diazabicyclo[3.2.1]octan-3-yl)pyrido[4,3-d]pyrimidin-7-yl)naphthalen-2-ol]", "values": [{"measurement": "pIC50", "setting": "KRAS^G12D/cRAF; class symbols", "result": "6.30 to 7.30"}, {"measurement": "pIC50", "setting": "AGS cell; class symbols", "result": "6.30 to 7.30"}]}, {"smiles": "[2H]C([2H])([2H])OCC12CCC(CN(c3nc(OC[C@@]45CCCN4C[C@H](F)C5)nc4c(F)c(-c5cc(O)cc6cc(Cl)c(F)c(C#C)c56)ncc34)C1)N2", "note": "(stereo partly drawn) [Example 16, 7-chloro-5-ethynyl-6-fluoro-4-(8-fluoro-2-(((2R,7aS)-2-fluorotetrahydro-1H-pyrrolizin-7a(5H)-yl)methoxy)-4-(1-((methoxy-d3)methyl)-3,8-diazabicyclo [3.2.1]octan-3-yl)pyrido[4,3-d]pyrimidin-7-yl)naphthalen-2-ol]", "values": [{"measurement": "pIC50", "setting": "KRAS^G12D/cRAF; class symbols", "result": "< 6.30"}, {"measurement": "pIC50", "setting": "AGS cell; class symbols", "result": "6.30 to 7.30"}]}, {"smiles": "[2H]C([2H])([2H])OCC12CCC(CN(c3nc(OC[C@@]45CCCN4C[C@H](F)C5)nc4c(F)c(-c5cc(O)cc6cc(C)c(F)c(C#C)c56)ncc34)C1)N2", "note": "(stereo partly drawn) [Example 17, 5-ethynyl-6-fluoro-4-(8-fluoro-2-(((2R,7aS)-2-fluorotetrahydro-1H-pyrrolizin-7a(5H)-yl)methoxy)-4-(1-((methoxy-d3)methyl)-3,8-diazabicyclo[3.2.1]octan-3-yl)pyrido[4,3-d]pyrimidin-7-yl)-7-methylnaphthalen-2-ol]", "values": [{"measurement": "pIC50", "setting": "AGS cell; class symbols", "result": "< 6.30"}]}, {"smiles": "C#Cc1c(F)ccc2cc(O)cc(-c3ncc4c(N5C[C@H]6CC[C@@](COC)(C5)N6)nc(OC[C@@]56CCCN5C[C@H](F)C6)nc4c3F)c12", "note": "[Example 45, 5-ethynyl-6-fluoro-4-(8-fluoro-2-(((2R,7aS)-2-fluorotetrahydro-1H-pyrrolizin-7a(5H)-yl)methoxy)-4-((1S,5R)-1-(methoxymethyl)-3,8-diazabicyclo[3.2.1]octan-3-yl)pyrido[4,3-d]pyrimidin-7-yl)naphthalen-2-ol]", "values": [{"measurement": "pIC50", "setting": "KRAS^G12D/cRAF; class symbols", "result": "< 6.30"}]}, {"smiles": "C#Cc1c(F)ccc2cc(O)cc(-c3ncc4c(N5C[C@@H]6CC[C@](CCF)(C5)N6)nc(OC[C@@]56CCCN5C[C@H](F)C6)nc4c3F)c12", "note": "[Example 56, 5-ethynyl-6-fluoro-4-(8-fluoro-4-((1S,5S)-1-(2-fluoroethyl)-3,8-diazabicyclo[3.2.1]octan-3-yl)-2-(((2R,7aS)-2-fluorotetrahydro-1H-pyrrolizin-7a(5H)-yl)methoxy)pyrido[4,3-d]pyrimidin-7-yl)naphthalen-2-ol]", "values": [{"measurement": "pIC50", "setting": "AGS cell; class symbols", "result": "> 7.30"}]}]}
